The text below walks through data of US7601850B2, “Phenyl-thiophene type vitamin D receptor modulators” (Eli Lilly and Company, priority 2002, dated 2009).

The assay relates to rat osteocalcin promoter. Nature of the assay: OCN (osteocalcin) promoter assay in RG-15 (ROS 17/2.8) cells. Type of assay: cell-based. How it is done: 4. The OCN Promoter test is described in the “Assay” section of the Description, infra.
3. The OCN (Osteocalcin) Promoter Assay
The OCN Promoter Assay is an indicator and marker for osteoporosis. Desired assay results are EC50 less than or equal to 325 nM. Preferred assay results are less than 50 nM.
(3) Materials and Method for The OCN Promoter Assay:
The activation of osteocalcin by VDR ligands was evaluated in a rat osteoblast-like cell line RG-15 (ROS 17/2.8) stably expressing rat osteocalcin promoter fused with luciferase reporter gene. The stable cell lines were established as reported before (Activation of Osteocalcin Transcription involves interaction of protein kinase A- and Protein kinase C-dependent pathways. Boguslawski, G., Hale, L. V., Yu, X.-P., Miles, R. R., Onyia, J. E., Santerre R. F., Chandrasekhar, S. J Biol. Chem. 275, 999-1006, 2000). Confluent RG-15 cells maintained in DMEM/F-12 medium (3:1) containing 5% FBS, 300 µg/ml G418 and at 37° C. under 5% CO2/95% air atmosphere were trypsinized (0.25% trypsin) and plated into white opaque 96-well cell culture plates (25000 cells/well). After 24 hr, cells (in DMEM/F-12 medium+2% FBS) were treated with various concentrations of compounds, dissolved in DMSO. The final DMSO concentration remained at 0.01% (v/v). After 48 hr treatment, the medium was removed, cells were lysed with 50 µl of lysis buffer (From Luciferase reporter assay system, Roche Diagnostics, Indianapolis, Ind.) and assayed for luciferase activity using the Luciferase Reporter Gene Assay kit from Boehringer Mannheim as per manufacturer's specifications.

Read-outs that look alike come from different tables or passages of the source.

The EC50 is the concentration that produces a half-maximal response. `CCC(CC)(c1ccc(OCC(O)C(C)(C)C)c(C)c1)c1cc(C)c(C(=O)N(C)OC)s1` (centres unmarked) [Ex. 42, 5-{1-Ethyl-1-[4-(2-hydroxy-3,3-dimetliyl-butyoxy)-3-methyl-phenyl]-propyl}-3methyl-thiophene-2-carboxylic acid methoxy-methyl-amide]: the EC50 (Rattus norvegicus) came out at 33.5 nM.

On to `CCC(CC)(c1ccc(OCC(O)C(C)(C)C)c(C)c1)c1cc(C)c(S(=O)(=O)NCC(=O)O)s1` (centres unmarked) [Ex. 137], for which, under “Rattus norvegicus”, the EC50 came out at 24.2 nM.

Regarding `CCC(CC)(c1ccc(OCS(C)(=O)=O)c(C)c1)c1cc(C)c(CCC(=O)C(C)(C)C)s1` [Ex. 13], the EC50 (Rattus norvegicus) turned out to be 313 nM.

As for `CCC(CC)(c1ccc(OCC(O)C(C)(C)C)c(C)c1)c1cc(C)c(C(=O)N(C)CC(=O)O)s1` (centres unmarked) [Ex. 123, N-2-[(5-{1-ethyl-1-[4-(2-hydroxy-3,3-dimethyl-butoxy)-3-methyl-phenyl]-propyl}-3-methyl-thiophene-2-carbonyl)-methylamino]-acetic acid], the EC50 (Rattus norvegicus) was 475 nM.

Regarding `CCC(CC)(c1ccc(OCC(O)C(C)(C)C)c(C)c1)c1cc(C)c(C(=O)NCCS(C)(=O)=O)s1` (single isomer, unassigned) [Ex. 40, 5-[1-ethyl-1-[4-(2-hydroxy-3,3-dimethyl-butoxy)-3-methylphenyl]propyl]-3-methylthiophene-2-carboxylic acid (2-methylsulfonyl-ethyl) amide], the EC50 was 613 nM.

`CCC(CC)(c1ccc(CCC(=O)O)c(C)c1)c1cc(C)c(CCC(O)C(C)(C)C)s1` (single isomer, unassigned) [Ex. 30A]: the EC50 (Rattus norvegicus) was found to be 11.2 nM.

In the case of `CCC(CC)(c1ccc(OCC(O)C(C)(C)C)c(C)c1)c1cc(C)c(C(=O)NC(C)(C)C(=O)OC)s1` (single isomer, unassigned) [Ex. 70, 2-[(5-{1-Ethyl-1-[4-(2-hydroxy-3,3-dimethyl-butoxy)-3-methyl-phenyl]-propyl}-3-methyl-thiophene-2-carbonyl)-amino]-2-methyl-propionic acid methyl ester], the half-maximal effective concentration (EC50) was 25.8 nM.

Turning to `CCC(CC)(c1ccc(OCC(O)C(C)(C)C)c(C)c1)c1cc(C)c(C(=O)N[C@@H](CC(=O)OC)C(=O)OC)s1` (single isomer, unassigned) [Ex. 58, L-2-[(5-{1-ethyl-1-[4-(2-hydroxy-3,3-dimethyl-butoxy)-3-methyl-phenyl]-propyl}-3-methyl-thiophene-2-carbonyl)-amino]-succinic acid dimethyl ester], the EC50 (Rattus norvegicus) worked out at 277 nM.

On to `CCC(CC)(c1ccc(OCC(=O)OC)c(C)c1)c1cc(C)c(CCC(O)C(C)(C)C)s1` (centres unmarked) [Ex. 31], for which the EC50 (Rattus norvegicus) was 7.8 nM.

`CCC(CC)(c1ccc(OCC(=O)C(C)(C)C)c(C)c1)c1cc(C)c(S(=O)(=O)NC(=O)COC)s1` [Ex. 166, 5-{1-[4-(3,3-Dimethyl-2-oxo-butoxy)-3-methyl-phenyl]-1-ethyl-propyl}-3-methyl-thiophene-2-sulfonic acid (2-methoxy-acetyl)-amide]: the EC50 (Rattus norvegicus) was 151 nM.

For the compound `CCC(CC)(c1ccc(OCC(O)C(C)(C)C)c(C)c1)c1cc(C)c(C(=O)NCC(=O)O)s1` (centres unmarked) [Ex. 47, 2-[5-{1-Ethyl-1-{4-(2-hydroxy-3,3-dimethyl-butyoxy)-3-methyl-phenyl-propyl}-3-methyl-thiophene-2-carbonyl)-amino]-acetic acid], for the setting “Rattus norvegicus”, the EC50 was 27.7 nM.

For the compound `CCCc1cc(C(CC)(CC)c2ccc(S(=O)(=O)NCC(=O)O)s2)ccc1OCC(O)C(C)(C)C` (centres unmarked) [Ex. 157], the EC50 (Rattus norvegicus) turned out to be 7.65 nM.

Regarding `CCC(CC)(c1ccc(OCC(O)C(C)(C)C)c(C)c1)c1cc(C)c(C(=O)N[C@@H](CC(=O)O)C(=O)O)s1` (stereo partly drawn) [Ex. 59, L-2-[(5-{1-Ethyl-1-[4-(2-hydroxy-3,3-dimethyl-butoxy)-3-methyl-phenyl]-propyl}-3-methyl-thiophene-2-carbonyl)-amino]-succinic acid], the EC50 (Rattus norvegicus) was 319 nM.

Take `CCC(C)[C@H](NC(=O)c1sc(C(CC)(CC)c2ccc(OCC(O)C(C)(C)C)c(C)c2)cc1C)C(=O)O` (stereo partly drawn) [Ex. 69, L-2-[(5-{1-Ethyl-1-[4-(2-hydroxy-3,3-dimethyl-butoxy)-3-methyl-phenyl]-propyl}-3-methyl-thiophene-2-carbonyl)-amino]-3-methyl-pentanoic acid]: under “Rattus norvegicus”, the EC50 is 487 nM.

Regarding `CCC(CC)(c1ccc(OCC(=S)C(C)(C)C)c(C)c1)c1cc(C)c(S(=O)(=O)N[C@H](C)C(=O)O)s1` [Ex. 147], the EC50 (Rattus norvegicus) is 128 nM.

As to `CCC(CC)(c1ccc(OCC(C)(O)C(C)(C)C)c(C)c1)c1ccc(C(=O)O)s1` (single isomer, unassigned) [Ex. 105, 3′-[4-(2-hydroxy-2,3,3-trimethylbutoxy)-3-methylphenyl]-3′-[5-carboxy-thiophen-2-yl]pentane], the half-maximal effective concentration (EC50) came out at 736 nM.

Consider `CCC(CC)(c1ccc(C(=O)NCC(=O)O)c(C)c1)c1cc(C)c(CCC(O)C(C)(C)C)s1` (single isomer, unassigned) [Ex. 27], for which the EC50 (Rattus norvegicus) was 49.1 nM.

For the compound `CCC(CC)(c1ccc(OCC(O)C(C)(C)C)c(C)c1)c1cc(C)c(C(=O)N2CCC[C@H]2C(=O)O)s1` (stereo partly drawn) [Ex. 75, L-1-(5-{1-Ethyl-1-[4-(2-hydroxy-3,3-dimethyl-butoxy)-3-methyl-phenyl]-propyl}-3-methyl-thiophene-2-carbonyl)-pyrrolidine-2-carboxylic acid], the EC50 stood at 423 nM.

Turning to `CCOC(=O)CCc1ccc(C(CC)(CC)c2cc(C)c(CCC(O)C(C)(C)C)s2)cc1C` (single isomer, unassigned) [Ex. 28], the EC50 (Rattus norvegicus) was determined as 0.76 nM.

`CCC(CC)(c1ccc(OCC(O)C(C)(C)C)c(C)c1)c1cc(C)c(-c2n[nH]c(=O)o2)s1` (single isomer, unassigned) [Ex. 171]: the EC50 (Rattus norvegicus) worked out at 92.6 nM.

On to `CCC(CC)(c1ccc(OCC(=O)C(C)(C)C)c(C)c1)c1cc(C)c(S(=O)(=O)N[C@H](C)C(=O)O)s1` [Ex. 146], for which, for the setting “Rattus norvegicus”, the EC50 turned out to be 27.7 nM.

As to `CCC(CC)(c1ccc(OCC(O)C(C)(C)C)c(C)c1)c1cc(C)c(C(=O)NCC(=O)OC)s1` (centres unmarked) [Ex. 46, 2-[5-{1-Ethyl-1-{4-(2-hydroxy-3,3-dimethyl-butyoxy)-3-methyl-phenyl-propyl}-3-methyl-thiophene-2-carbonyl)-amino]-acetic acid methyl ester], the EC50 (Rattus norvegicus) was determined as 43.6 nM.

As to `CCC(CC)(c1ccc(CCC(O)C(C)(C)C)c(C)c1)c1cc(C)c(C(=O)OC)s1` (centres unmarked) [Ex. 174, 5-{1-Ethyl-1-[4-(3-hydroxy-4,4-dimethyl-pentyl)-3-methyl-phenyl]-propyl}-3-methyl-thiophene-2-carboxylic acid methyl ester], the EC50 (Rattus norvegicus) stood at 172 nM.

Turning to `CCCc1cc(C(CC)(CC)c2ccc(C(=O)O)s2)ccc1OCC(C)(O)C(C)(C)C` (single isomer, unassigned) [Ex. 112, 3′-[4-(2-hydroxy-2,3,3-trimethylbutoxy)-3-n-propylphenyl]-3′-[5-carboxy-thiophen-2-yl]pentane], the EC50 came out at 5 nM.

With `CCC(CC)(c1ccc(C(=O)OC)c(C)c1)c1cc(C)c(CCC(O)C(C)(C)C)s1` (centres unmarked) [Ex. 21], where the note is “Rattus norvegicus”, the EC50 worked out at 140 nM.

For `CCC(CC)(c1ccc(OCC(=O)C(C)(C)C)c(C)c1)c1cc(C)c(S(=O)(=O)NC(=O)C(C)C)s1` [Ex. 164, 5-{1-[4-(3,3-Dimethyl-2-oxo-butoxy)-3-methyl-phenyl]-1-ethyl-propyl}-3-methyl-thiophene-2-sulfonic acid isobutyryl-amide], the EC50 (Rattus norvegicus) was 150 nM.

Regarding `CCC(CC)(c1ccc(OCC(O)C(C)(C)C)c(C)c1)c1ccc(C(=O)O)s1` (centres unmarked) [Ex. 88, 3′-[4-(2-hydroxy-3,3-dimethylbutoxy)-3-methylphenyl]-3′-[5-carboxy-thiophen-2-yl]pentane], the EC50 (Rattus norvegicus) was determined as 169 nM.

Consider `CCCc1cc(C(CC)(CC)c2ccc(C(=O)O)s2)ccc1OCC(C)(O)C(C)(C)C` (centres unmarked) [Ex. 111, 3′-[4-(2-hydroxy-2,3,3-trimethylbutoxy)-3-n-propylphenyl]-3′-[5-carboxy-thiophen-2-yl]pentane], for which, under “Rattus norvegicus”, the EC50 turned out to be 34.5 nM.

Take `CCC(CC)(c1ccc(OCC(O)C(C)(C)C)c(C)c1)c1cc(C)c(C(=O)N2CCC[C@H]2C(=O)OC)s1` (single isomer, unassigned) [Ex. 72, L-1-(5-{1-Ethyl-1-[4-(2-hydroxy-3,3-dimethyl-butoxy)-3-methyl-phenyl]-propyl}-3-methyl-thiophene-2-carbonyl)pyrrolidine-2-carboxylic acid methyl ester]: the EC50 amounted to 219 nM.

In the case of `CCC(CC)(c1ccc(OCC(O)C(C)(C)C)c(C)c1)c1cc(C)c(-c2n[nH]c(=S)o2)s1` (centres unmarked) [Ex. 172, 5-(5-{1-Ethyl-1-[4-(2-hydroxy-3,3-dimethyl-butoxy)-3-methyl-phenyl]-propyl}-3-methyl-thiophen-2-yl)-3H-[1,3,4]oxadiazole-2-thione], the EC50 (Rattus norvegicus) is 17.2 nM.

`CCC(CC)(c1ccc(OCC(O)C(C)(C)C)c(C)c1)c1cc(C)c(CO)s1` (single isomer, unassigned) [Ex. 126]: the half-maximal effective concentration (EC50) (Rattus norvegicus) worked out at 111 nM.

Regarding `CCC(CC)(c1ccc(OCC(O)C(C)(C)C)c(C)c1)c1cc(C)c(C(=O)N(C)CC(=O)O)s1` (single isomer, unassigned) [Ex. 122, N-methyl-2-[(5-{1-ethyl-1-[4-(2-hydroxy-3,3-dimethyl-butoxy)-3-methyl-phenyl]-propyl}-3-methyl-thiophene-2-carbonyl)-methylamino]-acetic acid], for the setting “Rattus norvegicus”, the EC50 amounted to 67.5 nM.
